Test results from patent publication US20090131702A1, “METHOD FOR THE PRODUCTION OF METAL CARBOXYLATES AND THE METAL AMINOATE OR METAL HYDROXY ANALOGUE METHIONATE DERIVATIVES THEREOF, AND USE OF SAME AS GROWTH PROMOTERS IN ANIMAL FEED” (NOREL, S.A., priority 2003, published 2009).
Where two headings read alike, the source gives them in different places. Marks after values point to notes of the source that are not given here.

Assays:
[1] = Test of efficacy in piglets: production parameters, copper glycinate / formate / complex (Example 15); format: in vivo; settings: 21-42 days, 125 ppm of copper added to base diet
Excerpt: (§2) Control of production parameters was effected at the end of the experiment, recording the live weight, the daily growth and the consumption of feed.

[2] = broilers
[3] = broilers; remark: listed apart in the source
Experimental: During the next 4 days, an investigation of the bioavailability of the copper was carried out. After fasting for 20 hours, the live weight per cage was recorded and the experimental feeds were supplied for 2 days, recording the consumption of feed.

[4] = broilers; for LW 21 d (live weight): day 21; for LW 42 d (live weight): day 42
[5] = Test in broilers: production parameters, copper methioninate / formate / complex (Example 13); format: in vivo, broilers of the Ross strain; settings: for MDC (mean daily consumption) / MDG (mean daily gain) / IC (index of conversion): 25 ppm of copper added to base diet; for LW 21 d (live weight): day 21, 25 ppm of copper added to base diet; for LW 42 d (live weight): day 42, 25 ppm of copper added to base diet
Experimental: Four experimental treatments were used, comprising the same basic diet supplemented with different sources of copper:
The dose of copper was calculated taking into account the copper content of the ingredients and the copper requirements in the case of treatments T-0 to T-3.
(§1) Control of production parameters was effected at 21 and 42 days of age, recording the live weight and the consumption of feed per batch.

[6] = piglets, 21-41 days; 150 ppm of zinc added to base diet
Experimental: 24 piglets were used (Large White*Large White×Landrace), 50% males and 50% females, weaned at 21 days of age and housed in 4 pens with 6 animals in each (3 males and 3 females).
The zinc dose was calculated taking into account the zinc content of the ingredients and the maximum permitted dose (150 ppm) in all the treatments.
The experimental period was 20 days.
as §2

[7] = Test of efficacy in piglets: production parameters, zinc glycinate / formate / complex (Example 14); format: in vivo; settings: 21-50 days, 130 ppm of zinc added to base diet
Excerpt: The experimental period was 29 days.

[8] = broilers, 150 ppm of zinc added to base diet
Excerpt: 160 one-day old broilers of the Ross strain were used (without differentiation of sexes), housed in cages in groups of 10 animals.
Control of production parameters was effected at 21 days of age, recording the live weight and the consumption of feed per batch.

[9] = Test in broilers: production parameters, zinc methioninate / formate / complex (Example 12); format: in vivo, broilers of the Ross strain; settings: for MDC (mean daily consumption) / MDG (mean daily gain) / IC (index of conversion): 50 ppm of zinc added to base diet; for effect on production parameters (in words): 50 ppm of zinc, control T-0 = zinc sulfate; for LW 21 d (live weight): day 21, 50 ppm of zinc added to base diet; for LW 42 d (live weight): day 42, 50 ppm of zinc added to base diet
Excerpt: Four experimental treatments were used, comprising the same basic diet supplemented with different sources of zinc:
as §1

[10] = piglets, 220 ppm of zinc added to base diet; for LW 28 d (live weight): day 28; for LW 42 d (live weight): day 42
Experimental: 300 piglets were used (cross of Large White and Landrace), 50% males and 50% females, weaned at 21 days of age and housed in 30 pens with 10 animals in each (5 males and 5 females).
Five experimental treatments were used, comprising the same basic diet, to which different sources of zinc are added:
The zinc dose was calculated taking into account the zinc content of the ingredients of the feed and the maximum permitted dose (250 ppm of zinc in the finished feed) in the case of treatments T-0 to T-2, and the dose with promoter effect (2000 ppm) in the case of treatment T-3.
The experimental period was 21 days.
The experimental model was a design of random blocks, with 6 replications per treatment. Each replication comprised a batch of 10 animals.
as §2

[11] = Zinc concentration in the liver of piglets (Example 11); format: in vivo; settings: for Liver zinc / Ratio Zn in liver/Zn in diet: end of 21-day experiment, 220 ppm of zinc added to base diet
Excerpt: At the end of the experiment, one male and one female were selected at random from each batch to take a specimen of liver tissue and determine the zinc content.

[12] = broilers; for Zinc excreted / Zinc ingested / Bioavailability: 43 to 46 days of age, 50 ppm of zinc added to base diet; for zinc bioavailability (in words): 50 ppm of zinc; for Bioavailability: zinc
[13] = 43 to 46 days of age, 25 ppm of copper added to base diet
[14] = 43 to 46 days of age, 20 ppm of copper added to base diet
[15] = 43 to 46 days of age, 150 ppm of copper added to base diet
[16] = 0-21 days, 20 ppm of copper added to base diet
[17] = 0-21 days, 150 ppm of copper added to base diet
[18] = 0-42 days, 20 ppm of copper added to base diet
[19] = 0-42 days, 150 ppm of copper added to base diet
[20] = 21-42 days, 20 ppm of copper added to base diet
[21] = 21-42 days, 150 ppm of copper added to base diet
[22] = 20 ppm of copper added to base diet
[23] = 150 ppm of copper added to base diet

NCC(=O)[O-].NCC(=O)[O-].[Cu+2] [copper glycinate]
GLW 21-42 d (gain in live weight) [1]: 7.25 b kg | IC (index of conversion) [1]: 1.91 b | MDC (mean daily consumption) [1]: 660.5 g/day | MDG (mean daily gain) [1]: 345.0 b g

O=S(=O)([O-])[O-].[Cu+2] [copper sulfate]
Copper excreted [2, 13]: 20.4^a mg | Copper ingested [2, 13]: 67.98^a mg | GLW 21-42 d (gain in live weight) [1]: 6.5 a kg | MDC (mean daily consumption) [1]: 650.5 g/day | MDG (mean daily gain) [1]: 309.5 a g | Copper excreted [3, 14]: 4.08^a mg | Copper ingested [3, 14]: 7.3^a mg | Copper excreted [3, 15]: 397.3^b mg | Copper ingested [3, 15]: 652.4^b mg | MDC (mean daily consumption) [4, 16]: 48.9 g/day | MDG (mean daily gain) [4, 16]: 34.2 a g | MDC (mean daily consumption) [4, 17]: 49.7 g/day | MDG (mean daily gain) [4, 17]: 35.9 b g | MDC (mean daily consumption) [4, 18]: 98.2 g/day | MDG (mean daily gain) [4, 18]: 50.6 a g | MDC (mean daily consumption) [4, 19]: 99.5 g/day | MDG (mean daily gain) [4, 19]: 55.2 b g | MDC (mean daily consumption) [4, 20]: 149.3 g/day | MDG (mean daily gain) [4, 20]: 69.2 a g | MDC (mean daily consumption) [4, 21]: 154.2 g/day | MDG (mean daily gain) [4, 21]: 76.7 b g | LW 21 d (live weight) [4, 22]: 716 a g | LW 21 d (live weight) [4, 23]: 756 b g | LW 42 d (live weight) [4, 22]: 2172 a g | LW 42 d (live weight) [4, 23]: 2362 b g | MDC (mean daily consumption) ([5]; 0-21 days): 45.3 g/day | MDG (mean daily gain) ([5]; 0-21 days): 31.6 a g | MDC (mean daily consumption) ([5]; 0-42 days): 102.7 g/day | MDG (mean daily gain) ([5]; 0-42 days): 51.6 a g | MDC (mean daily consumption) ([5]; 21-42 days): 160.1 g/day | MDG (mean daily gain) ([5]; 21-42 days): 71.6 a g | LW 21 d (live weight) [5]: 695 a g | LW 42 d (live weight) [5]: 2200 a g

O=C[O-].O=C[O-].[Zn+2] [zinc formate, Zinc formate]
GLW 21-41 d (gain in live weight) [6]: 8.00 b kg | MDC (mean daily consumption) [6]: 655.0 g/day | MDG (mean daily gain) [6]: 400.0 b g | GLW 21-50 d (gain in live weight) [7]: 12.50 b kg | MDC (mean daily consumption) [7]: 752.3 g/day | MDG (mean daily gain) [7]: 431.0 b g | MDC (mean daily consumption) ([8]; 0-21 days): 47.5 g/day | MDG (mean daily gain) ([8]; 0-21 days): 37.6 b g | LW 21 d (live weight) ([8]; day 21): 790 b g | MDC (mean daily consumption) ([9]; 0-21 days): 48.3 g/day | MDG (mean daily gain) ([9]; 0-21 days): 35.2 b g | MDC (mean daily consumption) ([9]; 0-42 days): 100.4 g/day | MDG (mean daily gain) ([9]; 0-42 days): 55.0 b g | MDC (mean daily consumption) ([9]; 21-42 days): 152.5 g/day | MDG (mean daily gain) ([9]; 21-42 days): 74.8 b g | effect on production parameters (in words) [9]: same effect | LW 21 d (live weight) [9]: 740 b g | LW 42 d (live weight) [9]: 2310 b g | MDC (mean daily consumption) ([10]; 21-28 days): 312.3 g/day | MDG (mean daily gain) ([10]; 21-28 days): 268.6 B g | MDC (mean daily consumption) ([10]; 21-42 days): 752.3 g/day | MDG (mean daily gain) ([10]; 21-42 days): 512.6 b g | LW 28 d (live weight) [10]: 8.76 ab kg | LW 42 d (live weight) [10]: 14.30 b kg | Liver zinc [11]: 59.21a μg/g | Zinc excreted [12]: 7.20^b mg | Zinc ingested [12]: 13.3^a mg | zinc bioavailability (in words) [12]: highest bioavailability | Bioavailability [12]: 45.8^b %

NCC(=O)[O-].NCC(=O)[O-].[Zn+2] [zinc glycinate]
GLW 21-50 d (gain in live weight) [7]: 12.75 b kg | IC (index of conversion) [7]: 1.68 b | MDC (mean daily consumption) [7]: 741.3 g/day | MDG (mean daily gain) [7]: 439.6 b g

[O]=[Zn] [zinc oxide]
GLW 21-50 d (gain in live weight) [7]: 11.40 a kg | IC (index of conversion) [7]: 2.02 a | MDC (mean daily consumption) [7]: 795.3 g/day | MDG (mean daily gain) [7]: 393.1 a g | IC (index of conversion) ([10]; 21-28 days): 1.32 a | MDC (mean daily consumption) ([10]; 21-28 days): 321.7 g/day | MDG (mean daily gain) ([10]; 21-28 days): 244.5 A g | IC (index of conversion) ([10]; 21-42 days): 1.67 a | MDC (mean daily consumption) ([10]; 21-42 days): 795.3 g/day | MDG (mean daily gain) ([10]; 21-42 days): 475.3 a g | LW 28 d (live weight) [10]: 8.41 A kg | LW 42 d (live weight) [10]: 13.11 a kg | liver zinc concentration (in words) ([11]; dose of 220 ppm): lowest | Liver zinc [11]: 47.63a μg/g | Ratio Zn in liver/Zn in diet [11]: 19.8ab

O=S(=O)([O-])[O-].[Zn+2] [zinc sulfate]
MDC (mean daily consumption) ([9]; 0-21 days): 47.3 g/day | MDG (mean daily gain) ([9]; 0-21 days): 33.6 a g | MDC (mean daily consumption) ([9]; 0-42 days): 101.7 g/day | MDG (mean daily gain) ([9]; 0-42 days): 53.5 a g | MDC (mean daily consumption) ([9]; 21-42 days): 156.3 g/day | MDG (mean daily gain) ([9]; 21-42 days): 73.6 a g | LW 21 d (live weight) [9]: 705 a g | LW 42 d (live weight) [9]: 2250 a g | Zinc excreted [12]: 8.34^a mg | Zinc ingested [12]: 12.4^a mg

Copper butyrate
Copper excreted [3, 14]: 2.99^a mg | Copper ingested [3, 14]: 7.3^a mg | copper bioavailability (in words) ([3]; 20 ppm of copper): highest bioavailability | Bioavailability ([3]; copper, 43 to 46 days of age, 20 ppm of copper added to base diet): 59.09^b % | IC (index of conversion) [4, 16]: 1.35 b | MDC (mean daily consumption) [4, 16]: 48.9 g/day | MDG (mean daily gain) [4, 16]: 36.2 b g | IC (index of conversion) [4, 18]: 1.76 b | MDC (mean daily consumption) [4, 18]: 97.2 g/day | MDG (mean daily gain) [4, 18]: 55.1 b g | IC (index of conversion) [4, 20]: 1.94 b | MDC (mean daily consumption) [4, 20]: 147.2 g/day | MDG (mean daily gain) [4, 20]: 75.9 b g | LW 21 d (live weight) [4, 22]: 763 b g | LW 42 d (live weight) [4, 22]: 2358 b g

Zinc butyrate
IC (index of conversion) ([10]; 21-28 days): 1.09 b | MDC (mean daily consumption) ([10]; 21-28 days): 286.3 g/day | MDG (mean daily gain) ([10]; 21-28 days): 262.9 ab g | IC (index of conversion) ([10]; 21-42 days): 1.45 b | MDC (mean daily consumption) ([10]; 21-42 days): 741.3 g/day | MDG (mean daily gain) ([10]; 21-42 days): 509.6 b g | LW 28 d (live weight) [10]: 8.99 B kg | LW 42 d (live weight) [10]: 14.15 b kg | ratio of zinc in the liver to zinc in the diet (in words) ([11]; 220 ppm of zinc): highest ratio | Liver zinc [11]: 56.3a μg/g | Ratio Zn in liver/Zn in diet [11]: 22.3bc

copper methioninate
Copper excreted [2, 13]: 29.5^b mg | Copper ingested [2, 13]: 69.3^a mg | copper bioavailability (in words) ([2]; 25 ppm of copper): highest bioavailability | Bioavailability ([2]; copper, 43 to 46 days of age, 25 ppm of copper added to base diet): 42.6^b % | IC (index of conversion) ([5]; 0-21 days): 1.36 b | MDC (mean daily consumption) ([5]; 0-21 days): 47.1 g/day | MDG (mean daily gain) ([5]; 0-21 days): 34.7 b g | IC (index of conversion) ([5]; 0-42 days): 1.86 b | MDC (mean daily consumption) ([5]; 0-42 days): 100.5 g/day | MDG (mean daily gain) ([5]; 0-42 days): 54.0 b g | IC (index of conversion) ([5]; 21-42 days): 2.08 b | MDC (mean daily consumption) ([5]; 21-42 days): 154.0 g/day | MDG (mean daily gain) ([5]; 21-42 days): 73.8 b g | effect on production parameters (in words) ([5]; 25 ppm of copper, control T-0 = copper sulfate): same effect | LW 21 d (live weight) [5]: 750 b g | LW 42 d (live weight) [5]: 2300 b g

zinc methioninate
IC (index of conversion) ([9]; 0-21 days): 1.35 b | MDC (mean daily consumption) ([9]; 0-21 days): 48.1 g/day | MDG (mean daily gain) ([9]; 0-21 days): 35.7 b g | IC (index of conversion) ([9]; 0-42 days): 1.82 b | MDC (mean daily consumption) ([9]; 0-42 days): 101.7 g/day | MDG (mean daily gain) ([9]; 0-42 days): 55.7 b g | IC (index of conversion) ([9]; 21-42 days): 2.05 b | MDC (mean daily consumption) ([9]; 21-42 days): 155.2 g/day | MDG (mean daily gain) ([9]; 21-42 days): 75.7 b g | effect on production parameters (in words) [9]: same effect | LW 21 d (live weight) [9]: 750 b g | LW 42 d (live weight) [9]: 2340 b g | Zinc excreted [12]: 7.35^b mg | Zinc ingested [12]: 12.6^a mg | zinc bioavailability (in words) [12]: highest bioavailability | Bioavailability [12]: 42.6^b %
